Results published in patent EP2329817A1, “Retinoic acid receptor antagonists, miR-10a inhibitors and inhibitors of HOXB1 or HOXB3 repressors for treating pancreatic cancer” (Ernst-Moritz-Arndt-Universität Greifswald, priority 2009, dated 2011).

Tests used:
Format in all cases: cell-based, human
miR-10a = experiment: cells
Experimental: Northern Blot analysis was performed essentially according to Kloosterman et al. ^16 using a miR-10 LNA probe ([…]) (Exiqon, Denmark). We had previously described protocols for RT-PCR^17 and RT-qPCR^18 . Primers for the RT-PCR were: HOXB1: sc-38686 and HOXB3: sc-38690-PR and RARα: sc-29465-PR all from Santa Cruz Biotechnology. For quantitative RT-PCR we used 100 ng of total RNA and the Roche Master SYBR Green kit. Single-band amplification was verified by melting curve dissociation protocols. A standard curve for β-actin using 1, 5, 10, 100, and 500 ng of total RNA was used for normalization. […]
PaTu-T cells were incubated as indicated, with DMSO (Co), 200 nM Ro-41-5253 (RARα inh), control-Morpholino, miR-10a Morpholino, miR-196 siRNA (Co), or RARα siRNA and PaTu-S cells were co-incubated with 1 µM retinoic acid (RA) and control siRNA, RARα siRNA or Ro-415253 and miR-10a expression was evaluated by Northern blot analysis (A). […] The effect of Ro-415253 on cell migration was analysed in an in vitro migration assay in PaTu-T cells. […]
PaTu-T cells were incubated for 24h with indicated concentrations of Ro-415253 and miR-10a expression was evaluated by northern blot analysis (upper panel). […] Patu-S cells were incubated tor 24h with indicated concentrations of ATRA and miR-10a expression was evaluated by northern blot analysis (upper panel). […]

HOXB1 = experiment: RT-PCR / RT-qPCR of HOXB1 expression; conditions: quantitative PCR
Experimental: (§1) Northern Blot analysis was performed essentially according to Kloosterman et al. ^16 using a miR-10 LNA probe ([…]) (Exiqon, Denmark). We had previously described protocols for RT-PCR^17 and RT-qPCR^18 . Primers for the RT-PCR were: HOXB1: sc-38686 and HOXB3: sc-38690-PR and RARα: sc-29465-PR all from Santa Cruz Biotechnology. For quantitative RT-PCR we used 100 ng of total RNA and the Roche Master SYBR Green kit. Single-band amplification was verified by melting curve dissociation protocols. A standard curve for β-actin using 1, 5, 10, 100, and 500 ng of total RNA was used for normalization. RT-qPCR primers for HOXB1 were: forward 5'-[…]-3' and reverse 5'-[…]-3' and for HOXB3: forward 5'-[…]-3' and reverse 5'-[…]-3'.
(§2) PaTu-S and PaTu-T cells were treated (24h) as indicated with specific siRNAs against HOXB1 (B1) and HOXB3 (B3) (Co: DMSO control) in the presence or absence of Ro-41-5253. Migration of these cells was analysed after transplantation into zebrafish embryos (see Table 1) and downregulation of HOXB1 and HOXB3 expression in these cells was confirmed by PCR analysis (A).
(§3) A similar regulation is seen following incubation with miR-10a Morpholinos or with miR-10a siRNAs (right side; Control: control Morpholino or control-siRNA) (B). Results are normalized to β-actin expression and similar results were obtained in three independent experiments. […]

HOXB3 = experiment: RT-PCR / RT-qPCR of HOXB3 expression; conditions: quantitative PCR
Experimental: as §1, §2, §3

Row | SMILES | fold induction at 1 µM (miR-10a; Homo sapiens, 24 h, read-out: miR-10a expression upregulated) | HOXB1 expression (HOXB1; PaTu-S cells) | HOXB3 expression (HOXB3; PaTu-S cells) | upregulation of miR-10a expression by retinoic acid (miR-10a; PaTu-S cells co-incubated with 1 µM retinoic acid) | HOXB1 expression (HOXB1; PaTu-T cells) | HOXB3 expression (HOXB3; PaTu-T cells)
1 | CC1=C(/C=C/C(C)=C/C=C/C(C)=C/C(=O)O)C(C)(C)CCC1 [RA, all trans retinoic acid] | 7.2 | decreased | decreased | – | – | –
2 | CCCCCCCOc1cc2c(cc1/C(C)=C/c1ccc(C(=O)O)cc1)C(C)(C)CCS2(=O)=O [Ro-41-5253, Benzoic acid, 4-(2-(7-(heptyloxy)-3,4-dihydro-4,4-dimethyl-2H-1-benzothiopyran-6-yl)-1-propenyl)-, S,S-dioxide, (E)] | – | – | – | completely blocked | increased | increased
